Data as given in patent US7064120B2, “Tricyclic pyridyl carboxamides and derivatives thereof tocolytic oxytocin receptor antagonists” (Wyeth, priority 2001, dated 2006).

What follows are molecules tested against T1, human oxytocin receptor (Homo sapiens, UniProt P30559) (assay: Oxytocin binding in CHO cell membranes expressing human oxytocin receptors ([3H]oxytocin radioligand binding)). Conditions: 100 nM, read-out: OT % inhibition @ 100 nM.
T1 construct: host or cells: CHO cells, stably transfected (pcDNA3.1 vector)
T1 sequence (P30559 1-389): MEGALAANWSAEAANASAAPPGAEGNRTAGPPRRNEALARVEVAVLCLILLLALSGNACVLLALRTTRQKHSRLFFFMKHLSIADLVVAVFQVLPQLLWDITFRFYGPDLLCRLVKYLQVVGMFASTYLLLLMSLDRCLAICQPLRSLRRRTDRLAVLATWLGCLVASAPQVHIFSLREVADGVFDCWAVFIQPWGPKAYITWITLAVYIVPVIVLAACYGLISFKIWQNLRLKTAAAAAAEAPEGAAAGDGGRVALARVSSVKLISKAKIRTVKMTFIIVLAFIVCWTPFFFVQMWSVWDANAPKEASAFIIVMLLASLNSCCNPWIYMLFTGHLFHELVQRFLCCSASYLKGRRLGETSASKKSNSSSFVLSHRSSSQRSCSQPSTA
Experimental: Oxytocin Binding in Chinese Hamster Ovary Cell Membranes Expressing Human Oxytocin Receptors
Cell Culture medium (e.g. 30 mL for 1:30 split) is immediately added and mixed well to inactivate trypsin. 1 mL of detached cells is added to new culture flasks containing fresh Cell Culture medium (e.g. into 25 mL per T-150 flask), and mixed gently. The cells are incubated at 37° C. in 5% CO2. The medium is changed at 3 to 4 days interval (or as appropriate). […] All steps are done under sterile conditions.
The cells are washed twice gently with Hank's Balanced Salt solution (e.g., use 10 mL per T-150 flask). […] The contents are transferred to centrifuge tubes (50 mL size) kept in ice bath. All subsequent steps are done at 4° C. The tubes are centrifuged at 300×g for 15 min (1380 rpm on SORVAL, Model RT6000D, using rotor for 50 mL tubes). The supernatant is discarded and the cells suspended in homogenizing buffer (10 mM Tris-HCl containing 0.25 M sucrose and 1 mM EDTA, pH 7.4) ensuring that the volume of the buffer is about ten times the volume of the cell pellet. The cells are pooled into a centrifuge tube (50 mL) and homogenized with a Polytron at setting 6 for 10 sec. The homogenate is transferred into a Potter-Elvjehm homogenizer and homogenized with 3 strokes. The homogenate is centrifuged at 1500×g for 10 min at 4° C. (3100 rpm using SORVAL, model RT6000D, using a rotor for 50 mL tubes). The pellet is discarded. The supernatant is centrifuged at 100,000×g for 60 min. at 4° C. (Beckman L8-80M ultracentrifuge; spin at 37,500 rpm with rotor type 70 Ti for 50 mL tubes; 38,000 rpm with rotor type 8OTi for 15 mL tubes; or 35,800 rpm with rotor type 45Ti). The supernantant is discarded and the pellet suspended in 3 to 4 mL of Tris buffer (50 mM TRIS-HCl, pH 7.4). The protein content is estimated by the Bradford or Lowry method. The volume of the membrane suspension is adjusted with the membrane buffer (50 mM Tris-HCl containing 0.1% BSA and 0.1 mM PMSF) to give 3.0 mg/mL (or as appropriate) of protein. The membranes are aliquoted and stored at −70° C.
In wells of a 96-well format microtiter plate, is added 90, 110 or 130 μL (to make up a final volume of 200 μL) of assay buffer containing 50 mM of Tris-HCl (pH 7.4), […], 1 mg % aprotinin, 1 mg % leupeptin, 2 mg % 1,10-phenanthroline, 10 mg % trypsin inhibitor, and 0.1 mM PMSF. The inhibitors are added on the day of the experiment. The components are mixed at room temperature, and then kept in ice bath following adjustment of the pH to 7.4. […] For oxytocin and other peptide ligands, 20 μL of 50% DMSO is added and the assay buffer volume is adjusted accordingly. To each well is added 50 μL of frozen membrane suspension thawed immediately prior to use and diluted in assay buffer to the required concentration (equivalent to 25 to 50 μg of protein/well as needed). 20 μL of 8 nM [^3H]oxytocin in the assay buffer, prepared just before use is added and incubated at room temperature for 60 min. shaking the plate on a mechanical shaker for the first 15 min. The incubation is stopped by rapid filtration of the plate contents followed by washing with ice-cold buffer (50 mM Tris-HCl, pH 7.4) using a cell harvester (Tomtek and Printed filtermat-B filter paper). The filter paper is thoroughly dried (7–12 min. in a microwave oven) and impregnated with MeltiLex B/H melt-on scintillation wax sheets and the radioactivity counted in a betaplate scintillation counter.
Binding data is either reported as percent inhibition at a certain concentration or if an IC50 was calculated, as a nanomolar concentration.

Question: With `Cc1ccccc1-c1ccc(C(=O)N2Cc3ccc(C(=O)N4CCN(c5ccncc5)CC4)n3Cc3ccccc32)cc1` [Example 117, {10-[(2′-Methyl-[1,1′-biphenyl]-4-yl)carbonyl]-10,11-dihydro-5H-pyrrolo[2,1-c][1,4]benzodiazepin-3-yl}[4-(4-pyridinyl)-1-piperazinyl]methanone] as the molecule, how does the inhibition at 0.1 µM read?
Answer: 13%

Question: For `COc1ccccc1-c1ccc(C(=O)N2Cc3ccc(C(=O)NCc4ccccn4)n3Cc3ccccc32)cc1OC` [Example 32, 10-[(2,2′-Dimethoxy-[1,1′-biphenyl]-4-yl)carbonyl]-N-(2-pyridinylmethyl)-10,11-dihydro-5H-pyrrolo[2,1-c][1,4]benzodiazepine-3-carboxamide], which inhibition at 0.1 µM is on record?
Answer: 47%

Question: For `Cc1ccccc1-c1ccc(C(=O)N2Cc3ccc(C(=O)N4CCN(c5ccncc5)CC4)n3Cc3ccccc32)cc1C` [Example 114, {10-[(2,2′-Dimethyl-[1,1′-biphenyl]-4-yl)carbonyl]-10,11-dihydro-5H-pyrrolo[2,1-c][1,4]benzodiazepin-3-yl}[4-(4-pyridinyl)-1-piperazinyl]methanone], which inhibition at 0.1 µM is on record?
Answer: 94%

Question: `COc1ccccc1-c1ccc(C(=O)N2Cc3ccc(C(=O)N4CCCCC4c4cccnc4)n3Cc3ccccc32)cc1` (stereo not drawn) [Example 139, {10-[(2′-Methoxy-[1,1′-biphenyl]-4-yl)carbonyl]-10,11-dihydro-5H-pyrrolo[2,1-c][1,4]benzodiazepin-3-yl}[2-(3-pyridinyl)-1-piperidinyl]methanone] was tested. Which inhibition at 0.1 µM did it give?
Answer: 96%

Question: `COc1cc(-c2ccccc2C)c(Cl)cc1C(=O)N1Cc2ccc(C(=O)N(C)CCc3ccncc3)n2Cc2ccccc21` [Example 132, 10-[(6-Chloro-3-methoxy-2′-methyl-[1,1′-biphenyl]-4-yl)carbonyl]-N-methyl-N-[2-(4-pyridinyl)ethyl]-10,11-dihydro-5H-pyrrolo[2,1-c][1,4]benzodiazepine-3-carboxamide] was tested. Which inhibition at 0.1 µM did it give?
Answer: 99%

Question: For `COc1cc(-c2ccccc2C)c(Cl)cc1C(=O)N1Cc2ccc(C(=O)N3CCCCC3c3cccnc3)n2Cc2ccccc21` (stereo not drawn) [Example 140, {10-[(6-Chloro-3-methoxy-2′-methyl-[1,1′-biphenyl]-4-yl)carbonyl]-10,11-dihydro-5H-pyrrolo[2,1-c][1,4]benzodiazepin-3-yl}[2-(3-pyridinyl)-1-piperidinyl]methanone], which inhibition at 0.1 µM is on record?
Answer: 95%

Question: Which inhibition at 0.1 µM does the source give for `COc1cc(C(=O)N2Cc3ccc(C(=O)N(C)CCc4ccncc4)n3Cc3ccccc32)ccc1-c1ccccc1C` [Example 131, 10-[(2-Methoxy-2′-methyl-[1,1′-biphenyl]-4-yl)carbonyl]-N-methyl-N-[2-(4-pyridinyl)ethyl]-10,11-dihydro-5H-pyrrolo[2,1-c][1,4]benzodiazepine-3-carboxamide] here?
Answer: 99%

Question: With `COc1ccccc1-c1ccc(C(=O)N2Cc3ccc(C(=O)N(C)CCc4ccncc4)n3Cc3ccccc32)cc1OC` [Example 125, 10-[(2,2′-Dimethoxy-[1,1′-biphenyl]-4-yl)carbonyl]-N-methyl-N-[2-(4-pyridinyl)ethyl]-10,11-dihydro-5H-pyrrolo[2,1-c][1,4]benzodiazepine-3-carboxamide] as the molecule, how does the inhibition at 0.1 µM read?
Answer: 94%

Question: For `COc1cc(C(=O)N2Cc3ccc(C(=O)N4CCN(c5ccccn5)CC4)n3Cc3ccccc32)ccc1-n1c(C)ccc1C` [Example 145, {10-[4-(2,5-Dimethyl-1H-pyrrol-1-yl)-3-methoxybenzoyl]-10,11-dihydro-5H-pyrrolo[2,1-c][1,4]benzodiazepin-3-yl}[4-(pyridin-2-yl)-1-piperazinyl]methanone], which inhibition at 0.1 µM is on record?
Answer: 22%

Question: How did the inhibition at 0.1 µM turn out when `COc1cccc(-c2cc(OC)c(C(=O)N3Cc4ccc(C(=O)N(C)Cc5cccnc5)n4Cc4ccccc43)cc2Cl)c1` [Example 108, 10-[(6-Chloro-3,3′-dimethoxy-[1,1′-biphenyl]-4-yl)carbonyl]-N-methyl-N-(3-pyridinylmethyl)-10,11-dihydro-5H-pyrrolo[2,1-c][1,4]benzodiazepine-3-carboxamide] was run?
Answer: 83%

Question: How did the inhibition at 0.1 µM turn out when `Cc1cc(C(=O)N2Cc3ccc(C(=O)NCc4cccnc4)n3Cc3ccccc32)ccc1-c1ccccc1C(F)(F)F` [Example 48, 10-{[2-Methyl-2′-trifluoromethyl-[1,1′-biphenyl]-4-yl]carbonyl}-N-(3-pyridinylmethyl)-10,11-dihydro-5H-pyrrolo[2,1-c][1,4]benzodiazepine-3-carboxamide] was run?
Answer: 15%

Question: With `COc1cccc(-c2cc(OC)c(C(=O)N3Cc4ccc(C(=O)NCc5cccnc5)n4Cc4ccccc43)cc2Cl)c1` [Example 43, 10-[(6-Chloro-3,3′-dimethoxy-[1,1′-biphenyl]-4-yl)carbonyl]-N-(3-pyridinylmethyl)-10,11-dihydro-5H-pyrrolo[2,1-c][1,4]benzodiazepine-3-carboxamide] as the molecule, how does the inhibition at 0.1 µM read?
Answer: 18%

Question: `COc1cc(C(=O)N2Cc3ccc(C(=O)NCCc4ccccn4)n3Cc3ccccc32)ccc1-c1cccc2ccccc12` [Example 57, 10-[3-Methoxy-4-(naphthalen-1-yl)benzoyl]-N-[2-(2-pyridinyl)ethyl]-10,11-dihydro-5H-pyrrolo[2,1-c][1,4]benzodiazepine-3-carboxamide] was tested. Which inhibition at 0.1 µM did it give?
Answer: 32%

Question: With `Cc1ccccc1-c1ccc(C(=O)N2Cc3ccc(C(=O)NCc4cccnc4)n3Cc3ccccc32)cc1` [Example 40, 10-[(2′-Methyl-[1,1′-biphenyl]-4-yl)carbonyl]-N-(3-pyridinylmethyl)-10,11-dihydro-5H-pyrrolo[2,1-c][1,4]benzodiazepine-3-carboxamide] as the molecule, how does the inhibition at 0.1 µM read?
Answer: 17%

Question: How did the inhibition at 0.1 µM turn out when `O=C(NCc1ccccn1)c1ccc2n1Cc1ccccc1N(C(=O)c1ccc(-c3cccc4ccccc34)cc1Cl)C2` [Example 34, 10-[2-Chloro-4-(naphthalen-1-yl)benzoyl]-N-(2-pyridinylmethyl)-10,11-dihydro-5H-pyrrolo[2,1-c][1,4]benzodiazepine-3-carboxamide] was run?
Answer: 5%

Question: Which inhibition at 0.1 µM does the source give for `Cc1ccccc1-c1ccc(C(=O)N2Cc3ccc(C(=O)NCCc4ccccn4)n3Cc3ccccc32)cc1C` [Example 50, 10-[(2,2′-Dimethyl-[1,1′-biphenyl]-4-yl)carbonyl]-N-[2-(2-pyridinyl)ethyl]-10,11-dihydro-5H-pyrrolo[2,1-c][1,4]benzodiazepine-3-carboxamide] here?
Answer: 67%

Question: How did the inhibition at 0.1 µM turn out when `COc1cc(-c2ccccc2C)c(Cl)cc1C(=O)N1Cc2ccc(C(=O)NCCc3ccccn3)n2Cc2ccccc21` [Example 55, 10-[(6-Chloro-3-methoxy-2′-methyl-[1,1′-biphenyl]-4-yl)carbonyl]-N-[2-(2-pyridinyl)ethyl]-10,11-dihydro-5H-pyrrolo[2,1-c][1,4]benzodiazepine-3-carboxamide] was run?
Answer: 50%

Question: Which inhibition at 0.1 µM does the source give for `Cc1ccccc1-c1ccc(C(=O)N2Cc3ccc(C(=O)N(C)CCc4ccncc4)n3Cc3ccccc32)cc1` [Example 130, N-Methyl-10-[(2′-methyl-[1,1′-biphenyl]-4-yl)carbonyl]-N-[2-(4-pyridinyl)ethyl]-10,11-dihydro-5H-pyrrolo[2,1-c][1,4]benzodiazepine-3-carboxamide] here?
Answer: 0%
